Results reported in patent US20170022201A1, “MACROCYLIC PYRIDINE DERIVATIVES” (Janssen Pharmaceutica NV, priority 2014, published 2017).

Assays:
EF2K = target: T1, EF2K (Homo sapiens, UniProt O00418); assay: Biochemical EF2K lysate-based kinase assay (AlphaLISA p-eEF2 Thr56); conditions: LN-229 cell lysates, 10 mM ATP, pH 6.6; pIC50 = -log IC50 (M); read-out: eEF2K_C_alphalisa pIC50 (converted)
T1 construct: host or cells: LN-229 glioblastoma cell lysate
T1 sequence (O00418 1-725): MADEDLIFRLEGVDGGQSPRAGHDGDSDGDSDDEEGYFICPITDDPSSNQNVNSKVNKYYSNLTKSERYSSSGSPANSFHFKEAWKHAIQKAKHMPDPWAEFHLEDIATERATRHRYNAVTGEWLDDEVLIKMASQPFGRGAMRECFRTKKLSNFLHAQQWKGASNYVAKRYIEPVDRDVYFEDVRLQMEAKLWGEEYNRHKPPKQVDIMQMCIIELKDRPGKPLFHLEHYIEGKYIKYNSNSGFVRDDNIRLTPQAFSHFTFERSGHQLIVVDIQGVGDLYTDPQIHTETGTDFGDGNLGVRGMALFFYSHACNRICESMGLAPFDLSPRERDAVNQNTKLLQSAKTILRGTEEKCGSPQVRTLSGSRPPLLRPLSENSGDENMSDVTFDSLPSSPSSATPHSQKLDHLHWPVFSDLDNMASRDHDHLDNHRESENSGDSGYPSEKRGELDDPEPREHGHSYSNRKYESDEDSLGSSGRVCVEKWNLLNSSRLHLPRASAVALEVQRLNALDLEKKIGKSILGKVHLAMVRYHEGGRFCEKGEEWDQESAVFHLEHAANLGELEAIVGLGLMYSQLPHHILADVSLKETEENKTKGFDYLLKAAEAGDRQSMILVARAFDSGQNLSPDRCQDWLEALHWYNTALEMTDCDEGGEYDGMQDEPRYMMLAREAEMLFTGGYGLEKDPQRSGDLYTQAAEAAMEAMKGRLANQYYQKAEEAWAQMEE
Summary of the method: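 LN-229 glioblastoma lysate supplied both EF2K and eEF2 substrate; compound incubated with lysate 15 minutes at room temperature at pH 6.6 with 10 mM Mg2+ and 10 mM ATP, then stopped with excess EDTA. Thr56-phosphorylated eEF2 detected by sandwich AlphaLISA, final read after overnight standing.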

PIK3C3 lipid kinase = PIK3C3 lipid kinase (Homo sapiens, UniProt Q8NEB9); assay: Biochemical Vps34 lipid kinase assay (ADP-Glo); conditions: 20 μM ATP; for remaining activity at 1 µM: 1 h, read-out: VPS34_1microM_%ofcntrl; for remaining activity at 1 µM / VPS34_1microM_%ofcntrl: single dose 1 μM, residual activity compared to control (DMSO); for IC50: serial dilution 10 μM to 0.3 nM, pIC50 = -log IC50 (M)
Experimental: A non-radiometric kinase assay (ADP-Glo™ Assay, Promega, Madison, Wi, USA) was used for measuring the kinase activity of the PIK3C3 lipid kinase. All kinase assays were performed in 96-well half-area microtiter plates in a 25 μl reaction volume. The reaction cocktail was pipetted in 3 steps in the following order: • 10 μl of ATP solution (in assay buffer, see below) • 5 μl of test sample in 5% DMSO 10 μl of enzyme/substrate mixture
All lipid kinase assays contained 50 mM HEPES (4-(2-hydroxyethyl)-1-piperazineethanesulfonic acid)—NaOH, pH 7.5, 1 mM EGTA ((ethylene glycol tetraacetic acid), 100 mM NaCl, 0.03% CHAPS (3-[(3-Cholamidopropyl) dimethylammonio]-1-propanesulfonate), 2 mM DTT (Dithiothreitol), 20 μM ATP (corresponding to the apparent ATP-Km), kinase (7.6 nM) and substrate (50 μM). The assay for PIK3C3 additionally contained 3 mM MnCl2.
The reaction cocktails were incubated at 30° C. for 60 minutes. The reaction was stopped with 25 μl ADP-Glo™ reagent per well. Plates were incubated for 40 minutes at room temperature, followed by addition of 50 μl kinase detection reagent per well and incubation for 60 minutes at room temperature. Signal was determined with a microplate luminescence reader (Victor, Perkin Elmer). The assay was either performed using a single dose of compound (1 μM final concentration in the assay reaction) with resulting data expressed as residual activity compared to control (DMSO), or using a serial (half-log) dilution of compounds starting at 10 μM and down to 0.3 nM (final concentrations in the assay) with data expressed as the pIC50.

eEF2K = target: T2, eEF2K (Homo sapiens, UniProt O00418); assay: EF2K cell-based assay (P-EF2 AlphaLISA, 2-deoxyglucose stimulated MCF10A cells); conditions: 2.5 mM 2-deoxyglucose 4 h, phosphorylation of EF2 at Thr 56, pIC50 = -log IC50 (M); for IC50: read-out: eEF2K_C_PThr56 pIC50 (converted)
T2 construct: in the immortalized epithelial breast cell lines, MCF10A; host or cells: MCF10A immortalized breast epithelial cells
T2 sequence (O00418 1-725): T1 sequence (O00418 1-725)
Summary of the method: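 MCF10A cells pretreated with compound for 1 h, then stimulated with 2.5 mM 2-deoxyglucose for 4 h to deplete ATP and activate AMPK. Phospho-EF2 in lysates measured by AlphaLISA.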

Chain of PIK3C3 lipid kinase (Q8NEB9 whole entry): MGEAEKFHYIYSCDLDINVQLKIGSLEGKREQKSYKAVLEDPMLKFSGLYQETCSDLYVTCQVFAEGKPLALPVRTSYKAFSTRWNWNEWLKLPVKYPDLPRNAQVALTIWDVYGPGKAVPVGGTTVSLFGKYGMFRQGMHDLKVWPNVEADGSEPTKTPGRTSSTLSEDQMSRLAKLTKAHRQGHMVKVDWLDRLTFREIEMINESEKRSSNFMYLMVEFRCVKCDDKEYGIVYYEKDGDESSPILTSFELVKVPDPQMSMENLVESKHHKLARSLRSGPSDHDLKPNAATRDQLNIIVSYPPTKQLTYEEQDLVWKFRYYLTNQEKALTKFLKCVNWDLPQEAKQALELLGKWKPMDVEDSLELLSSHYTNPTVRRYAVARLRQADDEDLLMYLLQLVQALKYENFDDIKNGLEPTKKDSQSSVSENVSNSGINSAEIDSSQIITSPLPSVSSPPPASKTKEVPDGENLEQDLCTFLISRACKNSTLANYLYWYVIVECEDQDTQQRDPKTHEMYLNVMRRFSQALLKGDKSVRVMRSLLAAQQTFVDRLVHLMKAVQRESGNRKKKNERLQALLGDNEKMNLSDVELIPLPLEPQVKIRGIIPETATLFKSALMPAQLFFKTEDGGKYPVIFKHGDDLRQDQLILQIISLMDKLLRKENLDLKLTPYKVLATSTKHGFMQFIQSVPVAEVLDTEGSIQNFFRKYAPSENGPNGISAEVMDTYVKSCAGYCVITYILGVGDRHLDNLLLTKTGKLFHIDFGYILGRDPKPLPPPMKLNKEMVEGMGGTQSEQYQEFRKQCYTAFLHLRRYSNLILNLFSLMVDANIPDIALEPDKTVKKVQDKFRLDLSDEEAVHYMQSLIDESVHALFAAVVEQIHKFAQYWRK

Compound | IC50 (EF2K) [M] | melting point [°C] | remaining activity at 1 µM (PIK3C3 lipid kinase) [%] | IC50 (PIK3C3 lipid kinase) [M] | IC50 (eEF2K) [M] | VPS34_1microM_%ofcntrl (PIK3C3 lipid kinase) [%] | eEF2K_C_PThr56 pIC50 (eEF2K)
O=C1CN2CCN(Cc3cccc(c3)Nc3cc(ccn3)-c3cnc(nc3)NCCCN1)C(CO)C2 (single isomer, unassigned) [Compound 7] | 1.12e-07 | 267.8 to 267.9 | 12.5 | 1.07e-07 | 1.62e-05 | – | –
COCCCN1CCCN(C)C(=O)CN2CCN(CC2)Cc2cccc(c2)Nc2cc(ccn2)-c2cnc1nc2 [Compound 14] | > 3.02e-05 | 240 | 50.4 | – | > 3.02e-05 | – | –
COCCN1CCN(C)C(=O)CN2CCN(CC2)Cc2cccc(c2)Nc2cc(ccn2)-c2cnc1nc2 [Compound 15] | > 3.02e-05 | 240 | 67 | – | > 3.02e-05 | – | –
O=C1CN2CCN(CC2)Cc2cccc(c2)Nc2cc(ccn2)-c2ccc(nc2)NCCN1 [Compound 70] | 5.62e-06 | 252 | 72.6 | – | > 3.02e-05 | – | –
CC1CN2CCN1Cc1cccc(c1)Nc1cc(ccn1)-c1ccc(nc1)NCCCNC(=O)C2 (stereo not shown) [Compound 71] | 3.31e-07 | 162 | 32.1 | – | 2.45e-05 | – | –
NC1CC2CCNC(=O)CN3CCN(CC3)Cc3cccc(c3)Nc3cc(ccn3)-c3cnc(nc3)N2C1 (stereo not shown) [Compound 84] | 7.24e-08 | – | 21.6 | 3.24e-07 | 1.02e-06 | – | –
NS(=O)(=O)NC1CC2CCNC(=O)CN3CCN(CC3)Cc3cccc(c3)Nc3cc(ccn3)-c3cnc(nc3)N2C1 (stereo not shown) [Compound 86] | 3.39e-07 | – | 68 | – | > 1e-05 | – | –
NS(=O)(=O)NC1CC2CCNC(=O)C3(CC3)N3CCN(CC3)Cc3cccc(c3)Nc3cc(ccn3)-c3cnc(nc3)N2C1 (stereo not shown) [Compound 87] | 1.95e-08 | – | 33.8 | – | ~2.29e-06 | – | –
O=C1CC2CCNC(=O)CN3CCN(CC3)Cc3cccc(c3)Nc3cc(ccn3)-c3cnc(nc3)N2C1 (stereo not shown) [Compound 88] | 6.46e-08 | – | 66.5 | – | 4.57e-07 | – | –
O=C1CN2CCC(CC2)Oc2cccc(c2)Nc2cc(ccn2)-c2cnc(nc2)NCCCN1 [Compound 90] | 1.91e-08 | – | – | 6.17e-08 | 5.25e-07 | – | –
O=C1NCCCNc2ncc(cn2)-c2ccnc(c2)Nc2cccc(c2)NC2CCN(CC2)C12CC2 [Compound 100] | 6.17e-08 | – | 14.9 | 3.55e-07 | 2.75e-06 | – | –
CN1c2cccc(c2)Nc2cc(ccn2)-c2cnc(nc2)NCCCNC(=O)CN2CCC1CC2 [Compound 101] | 2e-07 | – | 31.1 | – | 3.98e-06 | – | –
O=C1CN2CCC(CC2)Nc2cccc(c2)Nc2cc(ccn2)-c2cnc(nc2)NCCCN1 [Compound 106] | 7.59e-07 | 255.3 to 256.8 | 22.4 | 5.89e-07 | 2.88e-05 | – | –
O=C1NCCCNc2ncc(cn2)-c2ccnc(c2)Nc2cccc(c2)CN2CCN(CC2)C12CC2 [Compound 107] | 6.76e-09 | – | – | 3.31e-07 | 3.55e-07 | – | –
COC(=O)C1CCNC(=O)CN2CCN(CC2)Cc2cccc(c2)Nc2cc(ccn2)-c2cnc(nc2)N1 (stereo not shown) [Compound 116] | 2.69e-06 | – | 33.5 | – | 1.91e-05 | – | –
O=C1CN2CCN(CC2)Cc2cccc(c2)Nc2cc(ccn2)-c2cnc(nc2)NC(C(=O)O)CCN1 (stereo not shown) [Compound 117] | 4.57e-07 | – | – | 1.41e-07 | – | 16.31 | <4.52
O=C1CN2CCN(CC2)Cc2cccc(c2)Nc2cc(ccn2)-c2cnc(nc2)NC(C(=O)O)CCN1 (stereo not shown) [Compound 119] | 2.75e-07 | – | – | – | – | 58.90 | <4.52
O=C1CN2CCN(CC2)Cc2cccc(c2)Nc2cc(ccn2)-c2cnc(nc2)NC(C(=O)O)CCN1 (stereo not shown) [Compound 120] | 6.31e-07 | – | – | 2.95e-07 | > 3.02e-05 | 23.74 | –
NC(=O)C1CCNC(=O)CN2CCN(CC2)Cc2cccc(c2)Nc2cc(ccn2)-c2cnc(nc2)N1 (stereo not shown) [Compound 121] | 5.13e-06 | – | – | 2.63e-06 | > 1e-05 | – | –
CNC(=O)C1CCNC(=O)CN2CCN(CC2)Cc2cccc(c2)Nc2cc(ccn2)-c2cnc(nc2)N1 (stereo not shown) [Compound 122] | 1.91e-05 | – | 39.5 | – | 1.41e-05 | – | –
NC(=O)C1CCNC(=O)CN2CCN(CC2)Cc2cccc(c2)Nc2cc(ccn2)-c2cnc(nc2)N1 (stereo not shown) [Compound 123] | 4.47e-07 | – | 73.4 | – | 5.37e-06 | – | –
O=C1CN2CCN(CC2)Cc2cccc(c2)Nc2cc(ccn2)-c2cnc(nc2)NCCS(=O)(=O)N1 [Compound 126] | 2.82e-07 | – | 52.7 | – | > 3.02e-05 | – | –
O=C1CN2CCN(CC2)Cc2cccc(c2)Nc2cc(ccn2)-c2cnc(nc2)CN(CC2CC2)CCN1 [Compound 128] | 2.88e-07 | – | 74.5 | – | 4.17e-07 | – | –
C=CCN1CCNC(=O)CN2CCN(CC2)Cc2cccc(c2)Nc2cc(ccn2)-c2cnc(nc2)C1 [Compound 130] | 1e-06 | – | 57 | – | 1.58e-06 | – | –
O=C1CN2CCN(CC2)Cc2cccc(c2)Nc2cc(ccn2)-c2cnc(nc2)CN(C(=O)C2CC2)CCN1 [Compound 131] | 6.17e-08 | – | 56.2 | – | 2.51e-06 | – | –
O=C1CN2CCC(CC2)Cc2cccc(c2)Nc2cc(ccn2)-c2ccc(nc2)NCCCN1 [Compound 140] | 3.8e-06 | – | 46.4 | – | 8.51e-06 | – | –
O=C1CNCCNc2ccc(cn2)-c2ccnc(c2)Nc2cccc(c2)CN2CCN1CC2 [Compound 144] | ~1.51e-05 | 143 | 53.7 | – | > 3.02e-05 | – | –
O=C1CN2CCN(CC2)Cc2cccc(c2)Nc2cc(ccn2)-c2ccc(nc2)CN(CC2CC2)CCN1 [Compound 146] | 3.89e-08 | – | 54.6 | – | 6.61e-07 | – | –
